Results: patent US20140342379A1, “Means and Methods for Assessing Gonadal Toxicity” (BASF SE, priority 2011, published 2014)
Marks after values point to notes of the source that are not given here.

System: female rats
Assay: 28-day repeated dose study, plasma metabolite profiling (GC-MS, LC-MS), female rats

- 3-Methoxytyrosine, plasma, treatment ratio versus control (day 7): 1.09
- Arachidonic acid (C20:cis[5,8,11,14]4), plasma, treatment ratio versus control (day 7): 0.64*
- Campesterol, plasma, treatment ratio versus control (day 7): 0.61*
- Cholesterol, plasma, treatment ratio versus control (day 7): 0.65*
- Choline plasmalogen No 03, plasma, treatment ratio versus control (day 7): 0.89*
- Citrate, plasma, treatment ratio versus control (day 7): 0.83*
- Docosahexaenoic acid (C22:cis[4,7,10,13,16,19]6), plasma, treatment ratio versus control (day 7): 0.73*
- Docosapentaenoic acid (C22:cis[7,10,13,16,19]5), plasma, treatment ratio versus control (day 7): 0.67
- Dodecanol, plasma, treatment ratio versus control (day 7): 0.59*
- Elaidic acid (C18:trans[9]1), plasma, treatment ratio versus control (day 7): 0.74*
- Glycerol phosphate, lipid fraction, plasma, treatment ratio versus control (day 7): 0.52*
- Lysophosphatidylcholine (C20:4), plasma, treatment ratio versus control (day 7): 0.93
- Metanephrine, plasma, treatment ratio versus control (day 7): 0.9
- Phosphatidylcholine (C18:0,C18:1), plasma, treatment ratio versus control (day 7): 0.85
- Phosphatidylcholine (C18:0,C22:6), plasma, treatment ratio versus control (day 7): 0.87*
- Phosphatidylcholine No 04, plasma, treatment ratio versus control (day 7): 0.67*
- Progesterone, plasma, treatment ratio versus control (day 7): 0.67
- alpha-Tocopherol, plasma, treatment ratio versus control (day 7): 0.75
- gamma-Linolenic acid (C18:cis[6,9,12]3), plasma, treatment ratio versus control (day 7): 0.76
- myo-Inositol, lipid fraction, plasma, treatment ratio versus control (day 7): 0.63*
- threo-Sphingosine, plasma, treatment ratio versus control (day 7): 0.56*
- 3-Methoxytyrosine, plasma, treatment ratio versus control (day 14): 1
- Arachidonic acid (C20:cis[5,8,11,14]4), plasma, treatment ratio versus control (day 14): 0.71*
- Campesterol, plasma, treatment ratio versus control (day 14): 0.66*
- Cholesterol, plasma, treatment ratio versus control (day 14): 0.72*
- Choline plasmalogen No 03, plasma, treatment ratio versus control (day 14): 0.77*
- Citrate, plasma, treatment ratio versus control (day 14): 0.94
- Docosahexaenoic acid (C22:cis[4,7,10,13,16,19]6), plasma, treatment ratio versus control (day 14): 0.78*
- Docosapentaenoic acid (C22:cis[7,10,13,16,19]5), plasma, treatment ratio versus control (day 14): 0.97
- Dodecanol, plasma, treatment ratio versus control (day 14): 0.84*
- Elaidic acid (C18:trans[9]1), plasma, treatment ratio versus control (day 14): 0.71*
- Glycerol phosphate, lipid fraction, plasma, treatment ratio versus control (day 14): 0.76
- Lysophosphatidylcholine (C20:4), plasma, treatment ratio versus control (day 14): 0.93
- Metanephrine, plasma, treatment ratio versus control (day 14): 0.61
- Phosphatidylcholine (C18:0,C18:1), plasma, treatment ratio versus control (day 14): 0.8*
- Phosphatidylcholine (C18:0,C22:6), plasma, treatment ratio versus control (day 14): 0.9
- Phosphatidylcholine No 04, plasma, treatment ratio versus control (day 14): 0.8*
- Progesterone, plasma, treatment ratio versus control (day 14): 0.45*
- alpha-Tocopherol, plasma, treatment ratio versus control (day 14): 0.76*
- gamma-Linolenic acid (C18:cis[6,9,12]3), plasma, treatment ratio versus control (day 14): 0.69
- myo-Inositol, lipid fraction, plasma, treatment ratio versus control (day 14): 0.77*
- threo-Sphingosine, plasma, treatment ratio versus control (day 14): 0.79
- 3-Methoxytyrosine, plasma, treatment ratio versus control (day 28): 1.09
- Arachidonic acid (C20:cis[5,8,11,14]4), plasma, treatment ratio versus control (day 28): 0.78
- Campesterol, plasma, treatment ratio versus control (day 28): 0.83
- Cholesterol, plasma, treatment ratio versus control (day 28): 0.76
- Choline plasmalogen No 03, plasma, treatment ratio versus control (day 28): 0.74*
- Citrate, plasma, treatment ratio versus control (day 28): 0.89*
- Docosahexaenoic acid (C22:cis[4,7,10,13,16,19]6), plasma, treatment ratio versus control (day 28): 0.75*
- Docosapentaenoic acid (C22:cis[7,10,13,16,19]5), plasma, treatment ratio versus control (day 28): 1
- Dodecanol, plasma, treatment ratio versus control (day 28): 0.86
- Elaidic acid (C18:trans[9]1), plasma, treatment ratio versus control (day 28): 0.79
- Glycerol phosphate, lipid fraction, plasma, treatment ratio versus control (day 28): 0.79
- Lysophosphatidylcholine (C20:4), plasma, treatment ratio versus control (day 28): 0.87*
- Metanephrine, plasma, treatment ratio versus control (day 28): 0.81
- Phosphatidylcholine (C18:0,C18:1), plasma, treatment ratio versus control (day 28): 0.7*
- Phosphatidylcholine (C18:0,C22:6), plasma, treatment ratio versus control (day 28): 0.99
- Phosphatidylcholine No 04, plasma, treatment ratio versus control (day 28): 0.69*
- Progesterone, plasma, treatment ratio versus control (day 28): 0.38*
- alpha-Tocopherol, plasma, treatment ratio versus control (day 28): 0.61*
- gamma-Linolenic acid (C18:cis[6,9,12]3), plasma, treatment ratio versus control (day 28): 0.73*
- myo-Inositol, lipid fraction, plasma, treatment ratio versus control (day 28): 0.86
- threo-Sphingosine, plasma, treatment ratio versus control (day 28): 0.79
Compound: CC#C[C@]1(O)CC[C@H]2[C@@H]3CCC4=CC(=O)CCC4=C3[C@@H](c3ccc(N(C)C)cc3)C[C@@]21C [Mifepristone, (11b,17b)-11-[4-(Dimethylamino)phenyl]-17-hydroxy-17-(1-propynyl)estra-4,9-dien-3-one]
